The results in this text go back to patent publication US11427606B2, “Azithromycin derivatives containing a phosphonium ion as anticancer agents” (Rising Tide Foundation, priority 2017, dated 2022).

Structures are written as SMILES.

This experiment deals with MDA-231 cancer cells. In words: Inhibition of proliferation assay: cell confluence (IncuCyte imaging). Format: cell-based. The following applies: MDA-231 cells, IncuCyte images every 3 h over 4-5 d, relative confluence normalised to time zero. An excerpt:
Inhibition of Proliferation Assay
The confluence value is a surrogate for cell proliferation and growth. The value is expressed as a percent confluence, which represents the fraction of culture dish-surface that is occupied by cells. As the number of cells in the dish increases over time due to proliferation, so will their coverage of that surface increase. Expansion of the cell population on the cell culture-dish surface and confluence have mostly a linear relationship until the cells on the plate surface begin to reach saturation or maximum density.
Confluence is determined based on image analysis. Image based software can identify objects in the image field base on changes to pixel density in a grey scale image. The software can then assign a mask to those pixels within the object. Objects can be ‘gated’ out based on size and shape. To determine cell confluence, images of cells are first masked as objects. The surface area of the image that is masked is measured and compared to the total surface area of the culture dish surface to obtain a percent confluence.
MDA-231 cancer cells were obtained from ATCC. Cells were cultured in Dulbecco's Modified Eagle Medium (DMEM) supplemented with 10% Fetal Bovine Serum (FBS), 2 mM Glutamax, 1 mM Non Essential Amino Acid (NEAA) solution and 1 mM sodium pyruvate. […] Final DMSO concentrations were […]. Images were acquired with an IncuCyte Live Cell Imaging microscopy (Essen Bioscience) at every 3 h under cell culture conditions with 10× objective over 4-5 d. Cell confluence was calculated from one field of view per well using the IncuCyte in-built algorithm. Relative confluence values were obtained by normalising each value to the time zero value in each sample.

With `CC[C@H]1OC(=O)[C@H](C)[C@@H](O[C@H]2C[C@@](C)(OC)[C@@H](O)[C@H](C)O2)[C@H](C)[C@@H](O[C@@H]2O[C@H](C)C[C@H](N(C)C)[C@H]2O)[C@](C)(O)C[C@@H](C)CN(C)[C@H](C)[C@@H](O)[C@]1(C)O` [Azithromycin], the “% Confluence” value was found to be 99.1% (compound at 10 uM) and 17% (compound at 100 uM).

As for `CC[C@H]1OC(=O)[C@H](C)[C@@H](O[C@H]2C[C@@](C)(OC)[C@@H](O)[C@H](C)O2)[C@H](C)[C@@H](O[C@@H]2O[C@H](C)C[C@H](N(C)C)[C@H]2O)[C@](C)(O)C[C@@H](C)CN(C(=O)CCCCC[P+](c2cc(C)cc(C)c2)(c2cc(C)cc(C)c2)c2cc(C)cc(C)c2)[C@H](C)[C@@H](O)[C@]1(C)O` [Example 1, {6-[(2R,3S,4R,5R,8R,10R,11R,12S,13S,14R)-11-{[(2S,3R,4S,6R)-4-(dimethylamino)-3-hydroxy-6-methyloxan-2-yl]oxy}-2-ethyl-3,4,10-trihydroxy-13-{[(2R,4R,5S,6S)-5-hydroxy-4-methoxy-4,6-dimethyloxan-2-yl]oxy}-3,5,8,10,12,14-hexamethyl-15-oxo-1-oxa-6-azacyclopentadecan-6-yl]-6-oxohexyl}tris(3,5-dimethylphenyl)phosphoniumhexafluorophosphate(V)], the “% Confluence” value (compound at 10 uM) was determined as 4.8%. Still for that read-out and setting: the same measure for `CC[C@H]1OC(=O)[C@H](C)[C@@H](O[C@H]2C[C@@](C)(OC)[C@@H](O)[C@H](C)O2)[C@H](C)[C@@H](O[C@@H]2O[C@H](C)C[C@H](N(C)C)[C@H]2O)[C@](C)(O)C[C@@H](C)CN(C(=O)CCCCC[P+](c2ccccc2)(c2ccccc2)c2cccc(S(=O)(=O)O)c2)[C@H](C)[C@@H](O)[C@]1(C)O.F[P-](F)(F)(F)(F)F` [Example 2, {6-[(2R,3S,4R,5R,8R,10R,11R,12S,13S,14R)-11-{[(2S,3R,4S,6R)-4-(dimethylamino)-3-hydroxy-6-methyloxan-2-yl]oxy}-2-ethyl-3,4,10-trihydroxy-13-{[(2R,4R,5S,6S)-5-hydroxy-4-methoxy-4,6-dimethyloxan-2-yl]oxy}-3,5,8,10,12,14-hexamethyl-15-oxo-1-oxa-6-azacyclopentadecan-6-yl]-6-oxohexyl}diphenyl(3-sulfophenyl)phosphoniumhexafluorophosphate(V)]: 131.8%. As for `CC[C@H]1OC(=O)[C@H](C)[C@@H](O[C@H]2C[C@@](C)(OC)[C@@H](O)[C@H](C)O2)[C@H](C)[C@@H](O[C@@H]2O[C@H](C)C[C@H](N(C)C)[C@H]2O)[C@](C)(O)C[C@@H](C)CN(C(=O)CCCCCCC[P+](c2ccc(F)cc2)(c2ccc(F)cc2)c2ccc(F)cc2)[C@H](C)[C@@H](O)[C@]1(C)O` [Example 3, {8-[(2R,3S,4R,5R,8R,10R,11R,12S,13S,14R)-11-{[(2S,3R,4S,6R)-4-(dimethylamino)-3-hydroxy-6-methyloxan-2-yl]oxy}-2-ethyl-3,4,10-trihydroxy-13-{[(2R,4R,5S,6S)-5-hydroxy-4-methoxy-4,6-dimethyloxan-2-yl]oxy}-3,5,8,10,12,14-hexamethyl-15-oxo-1-oxa-6-azacyclopentadecan-6-yl]-8-oxooctyl}tris(4-fluorophenyl)phosphonium hexafluorophosphate(V)], the “% Confluence” value (compound at 10 uM) was 97.7%. For the compound `CC[C@H]1OC(=O)[C@H](C)[C@@H](O[C@H]2C[C@@](C)(OC)[C@@H](O)[C@H](C)O2)[C@H](C)[C@@H](O[C@@H]2O[C@H](C)C[C@H](N(C)C)[C@H]2O)[C@](C)(O)C[C@@H](C)CN(C(=O)CCCCCCC[P+](c2ccc(OC)cc2)(c2ccc(OC)cc2)c2ccc(OC)cc2)[C@H](C)[C@@H](O)[C@]1(C)O.F[P-](F)(F)(F)(F)F` [Example 5, {8-[(2R,3S,4R,5R,8R,10R,11R,12S,13S,14R)-11-{[(2S,3R,4S,6R)-4-(dimethylamino)-3-hydroxy-6-methyloxan-2-yl]oxy}-2-ethyl-3,4,10-trihydroxy-13-{[(2R,4R,5S,6S)-5-hydroxy-4-methoxy-4,6-dimethyloxan-2-yl]oxy}-3,5,8,10,12,14-hexamethyl-15-oxo-1-oxa-6-azacyclopentadecan-6-yl]-8-oxooctyl}tris(4-methoxyphenyl)phosphoniumhexafluorophosphate(V)], the “% Confluence” value (compound at 10 uM) stood at 7.8%. Same read-out and setting: to `CC[C@H]1OC(=O)[C@H](C)[C@@H](O[C@H]2C[C@@](C)(OC)[C@@H](O)[C@H](C)O2)[C@H](C)[C@@H](O[C@@H]2O[C@H](C)C[C@H](N(C)C)[C@H]2O)[C@](C)(O)C[C@@H](C)CN(C(=O)CCCCCCC[P+](c2ccccc2-c2c(OC(C)C)cccc2OC(C)C)(C2CCCCC2)C2CCCCC2)[C@H](C)[C@@H](O)[C@]1(C)O` [Example 6, [2′,6′-bis(propan-2-yloxy)-[1,1′-biphenyl]-2-yl]dicyclohexyl{8-[(2R,3S,4R,5R,8R,10R,11R,12S,13S,14R)-11-{[(2S,3R,4S,6R)-4-(dimethylamino)-3-hydroxy-6-methyloxan-2-yl]oxy}-2-ethyl-3,4,10-trihydroxy-13-{[(2R,4R,5S,6S)-5-hydroxy-4-methoxy-4,6-dimethyloxan-2-yl]oxy}-3,5,8,10,12,14-hexamethyl-15-oxo-1-oxa-6-azacyclopentadecan-6-yl]-8-oxooctyl}phosphonium hexafluorophosphate(V)] belongs 4%. For `CC[C@H]1OC(=O)[C@H](C)[C@@H](O[C@H]2C[C@@](C)(OC)[C@@H](O)[C@H](C)O2)[C@H](C)[C@@H](O[C@@H]2O[C@H](C)C[C@H](N(C)C)[C@H]2O)[C@](C)(O)C[C@@H](C)CN(C(=O)CCCCCCC[P+](C2CCCCC2)(C2CCCCC2)C2CCCCC2)[C@H](C)[C@@H](O)[C@]1(C)O` [Example 7, tricyclohexyl({8-[(2R,3S,4R,5R,8R,10R,11R,12S,13S,14R)-11-{[(2S,3R,4S,6R)-4-(dimethylamino)-3-hydroxy-6-methyloxan-2-yl]oxy}-2-ethyl-3,4,10-trihydroxy-13-{[(2R,4R,5S,6S)-5-hydroxy-4-methoxy-4,6-dimethyloxan-2-yl]oxy}-3,5,8,10,12,14-hexamethyl-15-oxo-1-oxa-6-azacyclopentadecan-6-yl]-8-oxooctyl})phosphonium hexafluorophosphate(V)], the “% Confluence” value (compound at 10 uM) was 75.3%. The same measure, in the same setting: to `CC[C@H]1OC(=O)[C@H](C)[C@@H](O[C@H]2C[C@@](C)(OC)[C@@H](O)[C@H](C)O2)[C@H](C)[C@@H](O[C@@H]2O[C@H](C)C[C@H](N(C)C)[C@H]2O)[C@](C)(O)C[C@@H](C)CN(C(=O)CCCCCCC[P+](c2ccccc2)(c2ccccc2)c2ccccn2)[C@H](C)[C@@H](O)[C@]1(C)O` [Example 8, {8-[(2R,3S,4R,5R,8R,10R,11R,12S,13S,14R)-11-{[(2S,3R,4S,6R)-4-(dimethylamino)-3-hydroxy-6-methyloxan-2-yl]oxy}-2-ethyl-3,4,10-trihydroxy-13-{[(2R,4R,5S,6S)-5-hydroxy-4-methoxy-4,6-dimethyloxan-2-yl]oxy}-3,5,8,10,12,14-hexamethyl-15-oxo-1-oxa-6-azacyclopentadecan-6-yl]-8-oxooctyl}diphenyl(pyridine-2-yl)phosphonium hexafluorophosphate(V)] belongs 83%. On the same count and under the same terms, to `CC[C@H]1OC(=O)[C@H](C)[C@@H](O[C@H]2C[C@@](C)(OC)[C@@H](O)[C@H](C)O2)[C@H](C)[C@@H](O[C@@H]2O[C@H](C)C[C@H](N(C)C)[C@H]2O)[C@](C)(O)C[C@@H](C)CN(CCCCCC[P+](C2CCCCC2)(C2CCCCC2)C2CCCCC2)[C@H](C)[C@@H](O)[C@]1(C)O.[I-]` [Example 9] belongs 70.9%; to `CC[C@H]1OC(=O)[C@H](C)[C@@H](O[C@H]2C[C@@](C)(OC)[C@@H](O)[C@H](C)O2)[C@H](C)[C@@H](O[C@@H]2O[C@H](C)C[C@H](N(C)C)[C@H]2O)[C@](C)(O)C[C@@H](C)CN(CCCCCC[P+](c2ccccc2-c2ccccc2N(C)C)(C2CCCCC2)C2CCCCC2)[C@H](C)[C@@H](O)[C@]1(C)O` [Example 10, dicyclohexyl({6-[(2R,3S,4R,5R,8R,10R,11R,12S,13S,14R)-11-{[(2S,3R,4S,6R)-4-(dimethylamino)-3-hydroxy-6-methyloxan-2-yl]oxy}-2-ethyl-3,4,10-trihydroxy-13-{[(2R,4R,5S,6S)-5-hydroxy-4-methoxy-4,6-dimethyloxan-2-yl]oxy}-3,5,8,10,12,14-hexamethyl-15-oxo-1-oxa-6-azacyclopentadecan-6-yl]hexyl})[2′-(dimethylamino)-[1,1′-biphenyl]-2-yl]phosphonium iodide], 4%. On the same count and under the same terms, the same measure for `CC[C@H]1OC(=O)[C@H](C)[C@@H](O[C@H]2C[C@@](C)(OC)[C@@H](O)[C@H](C)O2)[C@H](C)[C@@H](O[C@@H]2O[C@H](C)C[C@H](N(C)C)[C@H]2O)[C@](C)(O)C[C@@H](C)CN(CCCCCCCC[P+](c2ccccc2)(c2ccccc2)c2ccc(N(C)C)cc2)[C@H](C)[C@@H](O)[C@]1(C)O.[I-]` [Example 12]: 4.1%; for `CC[C@H]1OC(=O)[C@H](C)[C@@H](O[C@H]2C[C@@](C)(OC)[C@@H](O)[C@H](C)O2)[C@H](C)[C@@H](O[C@@H]2O[C@H](C)C[C@H](N(C)C)[C@H]2O)[C@](C)(O)C[C@@H](C)CN(CCCCCCCC[P+](c2ccc(OC)cc2)(c2ccc(OC)cc2)c2ccc(OC)cc2)[C@H](C)[C@@H](O)[C@]1(C)O.[I-]` [Example 13]: 4.8%.
